Active and inactive are the calls of the source. The calls are words filed in the database; no cut-off is given here.
Experiments:
[1] = test system: HEK-293T; test: Cytotoxicity against HEK293T cells assessed as reduction in cell survival at >10 uM incubated for 12 to 24 hrs by CCK8 assay; assay type: toxicity, cell-based; conditions: human, time 12-24 hrs
[2] = test system: Mus musculus; test: Anti-inflammatory activity in LPS-induced male C57BL/6 mouse model of acute […] injury assessed as reduction in dsDNA level in BALF at 2 to 6 mg/kg, IG preadministered with compound for 7 days followed by LPS administration and measured after 24 hrs by ELISA; assay type: functional, organism-based; conditions: dose 2-6 mg/kg, time 8.0 day

O=C(O)CCC(=O)N1N=C(c2ccc[nH]2)CC1c1cnc2ccccc2c1 (configuration not stated)
Activity [1]: Non-Toxic
Activity [2]: Active

Source: ChEMBL document CHEMBL6127087 (Eur J Med Chem, 2024)
